Assay results as given in US12091426B2, “Bifunctional degraders of hematopoietic progenitor kinase and therapeutic uses thereof” (Nurix Therapeutics, Inc., priority 2021, dated 2024).

Target: T1, HPK1 (Homo sapiens, UniProt Q92918)
T1 construct: A HiBiT tag was introduced by CRISPR on the N terminus of HPK1 in Jurkat cells; host or cells: Jurkat cells (ATCC TIB-152), monoclonal line with CRISPR knock-in of HiBiT at the endogenous HPK1 locus
Assay: HPK1 Cellular HiBit Degradation Assay
Format: cell-based
Conditions: HiBiT HPK1 Jurkat cells, 24 hrs; for DC50: concentration at which 50% of HPK1 was remaining, read-out: DC50 Category; for Dmax: Jurkat, read-out: Dmax Category
Procedure, shortened: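 Jurkat cells with CRISPR N-terminal HiBiT-tagged endogenous HPK1 treated 24 h at 37 °C with 11-point, 3.16-fold dilutions (10 uM to 0.1 nM final). HiBiT lytic luminescence gives % HPK1 remaining versus DMSO, with parental cells as background. Four-parameter fit yields DC50; Dmax = 100 minus lowest % remaining.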

[1] = maximum degradation vs DMSO vehicle control

T1 sequence (Q92918 whole entry): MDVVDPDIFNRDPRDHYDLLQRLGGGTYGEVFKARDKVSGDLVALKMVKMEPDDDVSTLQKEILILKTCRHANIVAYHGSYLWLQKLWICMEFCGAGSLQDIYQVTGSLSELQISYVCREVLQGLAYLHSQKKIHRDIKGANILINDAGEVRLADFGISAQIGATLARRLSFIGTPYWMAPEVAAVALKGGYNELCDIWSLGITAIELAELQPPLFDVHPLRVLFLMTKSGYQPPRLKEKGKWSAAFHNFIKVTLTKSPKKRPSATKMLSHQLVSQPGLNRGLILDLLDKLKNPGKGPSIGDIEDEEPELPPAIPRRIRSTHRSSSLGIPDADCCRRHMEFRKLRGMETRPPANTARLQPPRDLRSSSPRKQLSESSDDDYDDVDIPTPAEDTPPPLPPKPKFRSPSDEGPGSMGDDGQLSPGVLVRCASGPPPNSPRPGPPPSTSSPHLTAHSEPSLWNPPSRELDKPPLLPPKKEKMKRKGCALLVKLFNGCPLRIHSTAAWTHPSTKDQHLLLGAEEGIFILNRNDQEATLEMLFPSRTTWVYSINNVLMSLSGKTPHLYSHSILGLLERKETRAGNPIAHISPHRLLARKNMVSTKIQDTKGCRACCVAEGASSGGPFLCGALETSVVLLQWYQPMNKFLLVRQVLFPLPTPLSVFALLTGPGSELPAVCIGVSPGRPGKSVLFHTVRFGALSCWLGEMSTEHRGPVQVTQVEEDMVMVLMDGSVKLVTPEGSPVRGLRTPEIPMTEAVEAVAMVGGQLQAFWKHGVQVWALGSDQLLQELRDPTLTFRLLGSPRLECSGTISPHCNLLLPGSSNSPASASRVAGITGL

DC50	Dmax [1]	Compound	Dmax Category [1]
< 100 nM	> 85%	CC(C)Oc1nc(-c2ccc3c(c2)N([C@H]2C[C@@H](N4CCCCC4)C2)C(=O)C32CCN(C(=O)C3(C)CCN(C(=O)C4CCN(c5ccc(C6CCC(=O)NC6=O)cn5)CC4)CC3)CC2)cc2ncn(C(C)C)c12 (stereo partly drawn) [Example 169, 3-(6-{4-[4-methyl-4-({2-oxo-6-[3-(propan-2-yl)-4-(propan-2-yloxy)-3H-imidazo[4,5-c]pyridin-6-yl]-1-[(1S,3S)-3-(piperidin-1-yl)cyclobutyl]-1,2-dihydrospiro[indole-3,4′-piperidin]-1′-yl}carbonyl)piperidine-1-carbonyl]piperidin-1-yl}pyridin-3-yl)piperidine-2,6-dione]	
< 100 nM	70 to 85%	CC(C)n1cnc2cc(-c3ccc4c(c3)N([C@H]3C[C@@H](N5CCCCC5)C3)C(=O)C43CCN(C(=O)N4CCN(C(=O)C5CCN(c6ccc(C7CCC(=O)NC7=O)cn6)CC5)CC4)CC3)nc(NC3CC3)c21 (stereo partly shown) [Example 180]	
< 100 nM	> 85%	CC(C)n1cnc2cc(-c3ccc4c(c3)N([C@H]3C[C@@H](N5CCCCC5)C3)C(=O)C43CCN(C(=O)[C@@H]4CCN(C(=O)[C@H]5CC[C@H](N(C)c6ccc(C7CCC(=O)NC7=O)cn6)CC5)C4)CC3)nc(Nc3ccncc3F)c21 (mixture of isomers) [Example 128, (3RS)-3-(6-{methyl[(1R,4R)-4-[(3R)-3-[(6-{4-[(3-Fluoropyridin-4-yl)amino]-3-(propan-2-yl)-3H-imidazo[4,5-c]pyridin-6-yl}-2-oxo-1-[(1S,3S)-3-(piperidin-1-yl)cyclobutyl]-1,2-dihydrospiro[indole-3,4′-piperidin]-1′-yl)carbonyl]pyrrolidine-1-carbonyl]cyclohexyl]amino}pyridin-3-yl)piperidine-2,6-dione]	
100 to 500 nM	50 to 70%	CC(C)n1cnc2cc(-c3ccc4c(c3)N([C@H]3C[C@@H](N5CCCCC5)C3)C(=O)C43CCN(C(=O)[C@H]4CCN(C(=O)C5CCN(c6ccc(C7CCC(=O)NC7=O)cn6)CC5)C4)CC3)nc(Nc3ccncc3F)c21 (mixture of isomers) [Example 34, (3RS)-3-(6-{4-[(3S)-3-[(6-{4-[(3-fluoropyridin-4-yl)amino]-3-(propan-2-yl)-3H-imidazo[4,5-c]pyridin-6-yl}-2-oxo-1-[(1S,3S)-3-(piperidin-1-yl)cyclobutyl]-1,2-dihydrospiro[indole-3,4′-piperidin]-1′-yl)carbonyl]pyrrolidine-1-carbonyl]piperidin-1-yl}pyridin-3-yl)piperidine-2,6-dione]	
100 to 500 nM	> 85%	CC(C)n1cnc2cc(-c3ccc4c(c3)N([C@H]3C[C@@H](N5CCCCC5)C3)C(=O)C43CCN(C(=O)[C@@H]4CCN(C(=O)[C@H]5CC[C@H](Nc6cccc7c6C(=O)N(C6CCC(=O)NC6=O)C7=O)CC5)C4)CC3)nc(Nc3ccccc3F)c21 (mixture of isomers) [Example 9, 2-[(3RS)-2,6-dioxopiperidin-3-yl]-4-{[(1R,4R)-4-[(3R)-3-[(6-{4-[(2-fluorophenyl)amino]-3-(propan-2-yl)-3H-imidazo[4,5-c]pyridin-6-yl}-2-oxo-1-[(1S,3S)-3-(piperidin-1-yl)cyclobutyl]-1,2-dihydrospiro[indole-3,4′-piperidin]-1′-yl)carbonyl]pyrrolidine-1-carbonyl]cyclohexyl]amino}-2,3-dihydro-1H-isoindole-1,3-dione]	
< 100 nM	50 to 70%	CC(C)n1cnc2cc(-c3ccc4c(c3)N([C@H]3C[C@@H](N5CCCCC5)C3)C(=O)C43CCN(C(=O)C4CCN(C(=O)C5CCN(c6ccc(N7CCC(=O)NC7=O)cn6)CC5)CC4)CC3)nc(NC3CC3)c21 [Example 79, 1-(6-{4-[4-({6-[4-(cyclopropylamino)-3-(propan-2-yl)-3H-imidazo[4,5-c]pyridin-6-yl]-2-oxo-1-[(1S,3S)-3-(piperidin-1-yl)cyclobutyl]-1,2-dihydrospiro[indole-3,4′-piperidin]-1′-yl}carbonyl)piperidine-1-carbonyl]piperidin-1-yl}pyridin-3-yl)-1,3-diazinane-2,4-dione]	
100 to 500 nM	70 to 85%	Cc1cc(C2CCC(=O)NC2=O)ccc1N1CCC(C(=O)N2CCC(C)(C(=O)N3CCC4(CC3)C(=O)N([C@H]3C[C@@H](N5CCCCC5)C3)c3cc(-c5cc6ncn(C(C)C)c6c(NC6CC6)n5)ccc34)CC2)CC1 (mixture of isomers) [Example 226, (3RS)-3-(4-{4-[4-({6-[4-(cyclopropylamino)-3-(propan-2-yl)-3H-imidazo[4,5-c]pyridin-6-yl]-2-oxo-1-[(1S,3S)-3-(piperidin-1-yl)cyclobutyl]-1,2-dihydrospiro[indole-3,4′-piperidin]-1′-yl}carbonyl)-4-methylpiperidine-1-carbonyl]piperidin-1-yl}-3-methylphenyl)piperidine-2,6-dione]	
< 100 nM	70 to 85%	CC(C)n1cnc2cc(-c3ccc4c(c3)N([C@H]3C[C@@H](N5CCCCC5)C3)C(=O)C43CCN(C(=O)C4CCCN(C(=O)C5CCN(c6ccc(C7CCC(=O)NC7=O)cn6)CC5)C4)CC3)nc(NC3CC3)c21 (mixture of isomers) [Example 272, (3RS)-3-(6-{4-[3-({6-[4-(cyclopropylamino)-3-(propan-2-yl)-3H-imidazo[4,5-c]pyridin-6-yl]-2-oxo-1-[(1S,3S)-3-(piperidin-1-yl)cyclobutyl]-1,2-dihydrospiro[indole-3,4′-piperidin]-1′-yl}carbonyl)piperidine-1-carbonyl]piperidin-1-yl}pyridin-3-yl)piperidine-2,6-dione]	
100 to 500 nM	50 to 70%	CC(C)n1cnc2cc(-c3ccc4c(c3)N([C@H]3C[C@@H](N5CCCCC5)C3)C(=O)C43CCN(C(=O)C4CCN(C(=O)C5CCN(c6ncc(C7CCC(=O)NC7=O)cn6)CC5)CC4)CC3)nc(NC3CC3)c21 (mixture of isomers) [Example 89, (3RS)-3-(2-{4-[4-({6-[4-(cyclopropylamino)-3-(propan-2-yl)-3H-imidazo[4,5-c]pyridin-6-yl]-2-oxo-1-[(1S,3S)-3-(piperidin-1-yl)cyclobutyl]-1,2-dihydrospiro[indole-3,4′-piperidin]-1′-yl}carbonyl)piperidine-1-carbonyl]piperidin-1-yl}pyrimidin-5-yl)piperidine-2,6-dione]	
100 to 500 nM	50 to 70%	CC(C)n1cnc2cc(-c3ccc4c(c3)N([C@H]3C[C@@H](N5CCC[C@@H](F)C5)C3)C(=O)C43CCN(C(=O)C4(C)CCN(C(=O)CC5CCN(c6ccc(C7CCC(=O)NC7=O)cn6)CC5)CC4)CC3)nc(NC3CC3)c21 (mixture of isomers) [Example 205, (3RS)-3-[6-(4-{2-[4-({6-[4-(cyclopropylamino)-3-(propan-2-yl)-3H-imidazo[4,5-c]pyridin-6-yl]-2-oxo-1-[(1S,3S)-3-[(3R)-3-fluoropiperidin-1-yl]cyclobutyl]-1,2-dihydrospiro[indole-3,4′-piperidin]-1′-yl}carbonyl)-4-methylpiperidin-1-yl]-2-oxoethyl}piperidin-1-yl)pyridin-3-yl]piperidine-2,6-dione]	
100 to 500 nM	50 to 70%	CC(C)n1cnc2cc(-c3ccc4c(c3)N([C@H]3C[C@@H](N5CCCCC5)C3)C(=O)C43CCN(C(=O)C[C@@H]4CCCN(C(=O)C5CCN(c6ccc(C7CCC(=O)NC7=O)cn6)CC5)C4)CC3)nc(NC3CC3)c21 (mixture of isomers) [Example 298, (3RS)-3-(6-{4-[(3S)-3-(2-{6-[4-(cyclopropylamino)-3-(propan-2-yl)-3H-imidazo[4,5-c]pyridin-6-yl]-2-oxo-1-[(1S,3S)-3-(piperidin-1-yl)cyclobutyl]-1,2-dihydrospiro[indole-3,4′-piperidin]-1′-yl}-2-oxoethyl)piperidine-1-carbonyl]piperidin-1-yl}pyridin-3-yl)piperidine-2,6-dione]	
< 100 nM	70 to 85%	CC(C)n1cnc2cc(-c3ccc4c(c3)N([C@H]3C[C@@H](N5CCCCC5)C3)C(=O)C43CCN(C(=O)C4(C)CCN(C(=O)[C@H]5CC[C@H](Oc6ccc(N7CCC(=O)NC7=O)cn6)CC5)CC4)CC3)nc(Nc3ccccc3F)c21 [Example 108, 1-(6-{[(1R,4R)-4-{4-[(6-{4-[(2-fluorophenyl)amino]-3-(propan-2-yl)-3H-imidazo[4,5-c]pyridin-6-yl}-2-oxo-1-[(1S,3S)-3-(piperidin-1-yl)cyclobutyl]-1,2-dihydrospiro[indole-3,4′-piperidin]-1′-yl)carbonyl]-4-methylpiperidine-1-carbonyl}cyclohexyl]oxy}pyridin-3-yl)-1,3-diazinane-2,4-dione]	
100 to 500 nM	> 85%	CC(C)n1cnc2cc(-c3ccc4c(c3)N([C@H]3C[C@@H](N5CCCCC5)C3)C(=O)C43CCN(C(=O)C4(C)CCN(C(=O)C5CCN(c6ccc(C7CCC(=O)NC7=O)cn6)CC5)CC4)CC3)nc(Oc3ccccc3F)c21 (stereo partly drawn) [Example 164, 3-(6-{4-[4-({6-[4-(2-fluorophenoxy)-3-(propan-2-yl)-3H-imidazo[4,5-c]pyridin-6-yl]-2-oxo-1-[(1S,3S)-3-(piperidin-1-yl)cyclobutyl]-1,2-dihydrospiro[indole-3,4′-piperidin]-1′-yl}carbonyl)-4-methylpiperidine-1-carbonyl]piperidin-1-yl}pyridin-3-yl)piperidine-2,6-dione]	

Compound	DC50	Dmax [1]	Dmax Category [1]
CC(C)n1cnc2cc(-c3ccc4c(c3)N(C3CC(N5CCCCC5)C3)C(=O)C43CCN(C(=O)[C@@H]4CCN(C(=O)C5CCN(c6ccc(C7CCC(=O)NC7=O)cn6)CC5)C4)CC3)nc(Nc3ccncc3F)c21 (mixture of isomers) [Example 25, (3RS)-3-(6-{4-[(3R)-3-[(6-{4-[(3-fluoropyridin-4-yl)amino]-3-(propan-2-yl)-3H-imidazo[4,5-c]pyridin-6-yl}-2-oxo-1-[(1S,3S)-3-(piperidin-1-yl)cyclobutyl]-1,2-dihydrospiro[indole-3,4′-piperidin]-1′-yl)carbonyl]pyrrolidine-1-carbonyl]piperidin-1-yl}pyridin-3-yl)piperidine-2,6-dione]	< 100 nM		B (B: >70%-<85%)
